How the values were obtained:
IRAK4 [1] = target: T1, IRAK4 (Homo sapiens (Human), UniProt Q9NWZ3); assay: IRAK4 MSD degradation in OCI-LY10; format: cell-based
Outline: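 OCI-LY10 cells treated with 8-point 1:3 dilutions (top 1 to 10 μM final) for 4 to 24 h at 37° C. Lysate IRAK4 measured by MSD sandwich immunoassay (2H9 capture, Y279 detection, SULFO-TAG anti-rabbit). DC50 from three-parameter logistic fit.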

IRAK4 [2] = target: T1, IRAK4; assay: hPBMC IRAK4 degradation flow assay; format: cell-based; details: hPBMC monocyte
Outline: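 Thawed human PBMCs treated with 10-point, 5-fold compound dilutions (0.1% DMSO) at 37° C. for 20 hours or 4 hours. IRAK4 measured by flow MFI in CD14+ monocytes and CD14− lymphocytes, normalized to DMSO and 10 μM 20-hour control; DC50 and max degradation from 4-parameter logistic fit.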

OCI-LY10 = assay: CTG Cell Viability Assay - OCI-LY10; format: cell-based, human; details: Homo sapiens, OCI-Ly10, 96 h, OCI-LY10, 4 days; read-out: CTG Cell Viability Assay - OCI-LY10: Average external-IC50
Outline: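 OCI-LY10 cells exposed to 9-dose, 1:3 dilutions from 10 μM top (0.2% DMSO) for 4 days at 37° C, 5% CO2. Viability by CellTiter-Glo luminescence; IC50 from three-parameter logistic fit.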

IL-6 = IL-6 secretion in hPBMC using R848 stimulation; format: cell-based, human; details: Homo sapiens, 20 h, hPBMC, R848 as stim, t = 20 h
[3] = OCI-LY10, 4 hrs, MSD, read-out: IRAK4 MSD degradation in OCI-LY10 at 4 hrs: Average external-Abs DC50
[4] = 20 hr, flow assay, read-out: IRAK4 degradation in hPBMC monocyte at 20 hr: Average external Abs DC50
[5] = OCI-LY10, 4 hrs, read-out: IRAK4 MSD degradation in OCI-LY10 at 4 hrs: DC50
[6] = 20 hrs, read-out: IRAK4 degradation in hPBMC monocyte: DC50

T1 sequence (Q9NWZ3 whole entry): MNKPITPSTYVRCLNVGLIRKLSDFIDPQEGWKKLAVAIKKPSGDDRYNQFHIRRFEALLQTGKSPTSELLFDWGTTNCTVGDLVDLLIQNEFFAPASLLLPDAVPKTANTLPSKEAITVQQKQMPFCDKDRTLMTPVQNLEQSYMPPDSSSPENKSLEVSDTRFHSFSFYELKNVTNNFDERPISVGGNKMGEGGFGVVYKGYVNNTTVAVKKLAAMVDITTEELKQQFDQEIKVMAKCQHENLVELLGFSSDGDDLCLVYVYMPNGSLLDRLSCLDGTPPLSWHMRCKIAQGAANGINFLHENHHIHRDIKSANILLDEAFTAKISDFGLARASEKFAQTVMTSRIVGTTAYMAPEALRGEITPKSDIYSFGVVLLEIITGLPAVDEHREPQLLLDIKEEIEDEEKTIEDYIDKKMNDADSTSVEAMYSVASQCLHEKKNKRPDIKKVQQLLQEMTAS

SMILES | DC50 (IRAK4 [1]; [3]) [nM] | DC50 (IRAK4 [2]; [4]) [nM] | IC50 (OCI-LY10) [nM] | IC50 (IL-6) [nM] | DC50 (IRAK4 [1]; [5]) [nM] | DC50 (IRAK4 [2]; [6]) [nM] | DC50 (IRAK4 [1]; OCI-LY10, 24 hrs, MSD, read-out: IRAK4 MSD degradation in OCI-LY10 at 24 hrs: Average external-Abs DC50) [nM]
Cn1c(=O)n(C2CCC(=O)NC2=O)c2cccc(CCCCC3CCN(C(=O)c4ccc(-n5cc(NC(=O)c6cnn7ccc(N8C[C@H]9C[C@@H]8CO9)nc67)c(C(F)F)n5)cc4)CC3)c21 (some centres unmarked) [I-426] | 100 to 1000 | < 10 | > 1000 | 1 to 10 |  |  | 
Cn1c(=O)n(C2CCC(=O)NC2=O)c2cccc(C#CCN3CCC4(CC3)CN(C[C@H]3CC[C@H](n5cc(NC(=O)c6cnn7ccc(N8C[C@H]9C[C@@H]8CO9)nc67)c(C(F)F)n5)CC3)C4)c21 (some centres unmarked) [I-485] |  |  | > 1000 | 1 to 10 | 10 to 100 | < 10 | 
Cn1c(=O)n(C2CCC(=O)NC2=O)c2cccc(CCCOC[C@@H]3CN(C[C@H]4CC[C@H](n5cc(NC(=O)c6cnn7ccc(N8CCOCC8)nc67)c(C(F)F)n5)CC4)CCO3)c21 (some centres unmarked) [I-448] |  |  | > 1000 | 1 to 10 | 10 to 100 | < 10 | 
CN(CCCc1cccc2c1n(C)c(=O)n2C1CCC(=O)NC1=O)C(=O)c1ccc(N2CCC(n3cc(NC(=O)c4cnn5ccc(N6C[C@H]7C[C@@H]6CO7)nc45)c(C(F)F)n3)CC2)cc1 (some centres unmarked) [I-479] |  |  | > 1000 | 10 to 100 | 100 to 1000 | 100 to 1000 | 
CN1C(=O)C(C2CCC(=O)NC2=O)c2cc(CCCOC3CCN(C[C@H]4CC[C@H](C5N=C(NC(=O)c6cnn7ccc(N8C[C@H]9C[C@@H]8CO9)nc67)C(C(F)F)=N5)CC4)CC3)ccc21 (some centres unmarked) [I-553] |  |  | > 1000 | 1 to 10 | 100 to 1000 | 10 to 100 | 
Cn1c(=O)n(C2CCC(=O)NC2=O)c2cccc(C[C@H]3CC[C@H](N(C)C[C@H]4CC[C@H](n5cc(NC(=O)c6cnn7ccc(N8C[C@H]9C[C@@H]8CO9)nc67)c(C(F)F)n5)CC4)CC3)c21 (some centres unmarked) [I-508] |  |  | > 1000 | 1 to 10 |  | < 10 | 
CN(CC1CCN(c2cccc3c2C(=O)N(C2CCC(=O)NC2=O)C3=O)CC1)C[C@H]1CC[C@H](n2cc3cc(NC(=O)c4cccc(C(F)(F)F)n4)c(C(C)(C)O)cc3n2)CC1 (some centres unmarked) [I-317] | 10 to 100 | 10 to 100 | > 1000 | 1 to 10 |  |  | 10 to 100
Cn1c(=O)n(C2CCC(=O)NC2=O)c2cccc(CCCC3CCN(C[C@H]4CC[C@H](n5cc(NC(=O)c6cnn7ccc(N8CCOC(C)(C)C8)nc67)c(C(F)F)n5)CC4)CC3)c21 (some centres unmarked) [I-525] |  |  | > 1000 | < 1 | 10 to 100 | < 10 | 
Cc1ccc(-c2nn([C@H]3CC[C@H](CN4CCC5(CC4)CN(CCCc4cccc6c4n(C)c(=O)n6C4CCC(=O)NC4=O)C5)CC3)cc2NC(=O)c2cnn3cccnc23)nc1 (some centres unmarked) [I-509] |  |  | > 1000 | 1 to 10 | 10 to 100 | 10 to 100 | 
Cn1c(=O)n(C2CCC(=O)NC2=O)c2cccc(OC3CC4(CCN(C[C@H]5CC[C@H](n6cc(NC(=O)c7cnn8ccc(N9C[C@H]%10C[C@@H]9CO%10)nc78)c(C(F)F)n6)CC5)CC4)C3)c21 (some centres unmarked) [I-526] |  |  | > 1000 | < 1 | < 10 | < 10 | 
C[C@@H]1CN(c2ccn3ncc(C(=O)Nc4cn([C@H]5CC[C@H](C(=O)N6CCC7(CC6)CN(CCCc6cccc8c6n(C)c(=O)n8C6CCC(=O)NC6=O)C7)CC5)nc4C(F)F)c3n2)C[C@H](C)O1 (some centres unmarked) [I-480] |  |  | > 1000 | < 1 | 10 to 100 | < 10 | 
Cn1c(=O)n(C2CCC(=O)NC2=O)c2cccc(CC(=O)N3CC4(CCN(C[C@H]5CC[C@H](n6cc(NC(=O)c7cnn8ccc(N9C[C@H]%10C[C@@H]9CO%10)nc78)c(C(F)F)n6)CC5)CC4)C3)c21 (some centres unmarked) [I-421] | < 10 | < 10 | > 1000 | < 1 |  |  | 
O=C1CCC(n2c3ccccc3c3c(CCCN4CC5(CCN(C(=O)[C@H]6CC[C@H](n7cc(NC(=O)c8cnn9ccc(N%10C[C@H]%11C[C@@H]%10CO%11)nc89)c(C(F)F)n7)CC6)CC5)C4)ccnc32)C(=O)N1 (some centres unmarked) [I-447] |  |  | > 1000 | 1 to 10 | 10 to 100 | < 10 | 
CN(CC(CCCOCCCc1cccc2c1n(C)c(=O)n2C1CCC(=O)NC1=O)C(=O)O)C[C@H]1CC[C@H](n2cc(NC(=O)c3coc(-c4ccnc(NCC5CC5)c4)n3)c(C(F)F)n2)CC1 (some centres unmarked) [I-396, 2-[[[4-[4-[[2-[2-(Cyclopropylmethylamino)-4-pyridyl]oxazole-4-carbonyl]amino]-3-(difluoromethyl)pyrazol-1-yl]cyclohexyl]methyl-methyl-amino]methyl]-5-[3-[1-(2,6-dioxo-3-piperidyl)-3-methyl-2-oxo-benzimidazol-4-yl]propoxy]pentanoic acid] | 10 to 100 | 10 to 100 | 50 to 100 | 1 to 10 |  |  | 
